Values of other authors as cited in patent US20050003028A1, “Composition for protection and regeneration of structure and function of the liver” (priority 2001, published 2005).

Details: in vivo

- re-absorbtion into digestive system: weak
Substance: Sylimarin
